Our source for the inhibition values is patent US20050009840A1 (SUGEN, INC., priority 2003, published 2005).

Broadly, the inhibition is the share of the control response that was lost under treatment.

The target of the first assay is T1, HGFR (Homo sapiens, UniProt P08581).
T1 construct: purchased Upstate 14-526
T1 sequence (P08581 974-1390 limits assumed): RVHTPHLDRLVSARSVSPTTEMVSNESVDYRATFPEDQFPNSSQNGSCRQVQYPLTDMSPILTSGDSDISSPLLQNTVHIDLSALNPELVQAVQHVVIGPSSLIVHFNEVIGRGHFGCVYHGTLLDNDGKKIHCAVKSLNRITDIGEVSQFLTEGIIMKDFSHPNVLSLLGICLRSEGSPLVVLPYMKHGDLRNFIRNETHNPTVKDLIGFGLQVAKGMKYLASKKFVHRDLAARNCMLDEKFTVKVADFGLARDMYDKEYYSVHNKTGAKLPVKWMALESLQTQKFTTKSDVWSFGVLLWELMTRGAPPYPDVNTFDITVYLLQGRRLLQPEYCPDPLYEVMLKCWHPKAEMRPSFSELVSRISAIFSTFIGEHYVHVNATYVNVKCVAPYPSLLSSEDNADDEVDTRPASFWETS
In words: HGFR continuous-coupled spectrophotometric assay. It counts as biochemical. Conditions: at 1 pM; Table 6, library procedure 41; read-out: % Inhibition (percent c-MET inhibition).
As for `Nc1ncc(C(=O)NC2CCN(Cc3ccccc3)C2)cc1OCc1c(Cl)cccc1Cl` [Example L-184], the inhibition at 1 pM stood at 27%.
Turning to `Nc1ncc(C(=O)NCCc2c[nH]cn2)cc1OCc1c(Cl)cccc1Cl` [Example L-185], the inhibition at 1 pM worked out at 29%.
The same measure, in the same setting: the value for `CN(C)c1ccc(CNC(=O)c2cnc(N)c(OCc3c(Cl)cccc3Cl)c2)cc1` [Example L-186] was 30%; that for `Nc1ncc(C(=O)NCCc2ccc(S(N)(=O)=O)cc2)cc1OCc1c(Cl)cccc1Cl` [Example L-187] was 30%; that for `NC(=O)C1CCCN(C(=O)c2cnc(N)c(OCc3c(Cl)cccc3Cl)c2)C1` [Example L-188] was 39%.
For `Nc1ncc(C(=O)NC2CCSC2=O)cc1OCc1c(Cl)cccc1Cl` [Example L-189], the inhibition at 1 pM worked out at 35%.
On the same count and under the same terms, the figure for `CC(=O)NCCNC(=O)c1cnc(N)c(OCc2c(Cl)cccc2Cl)c1` [Example L-190] is 35%; for `CN(C)CC(C)(C)CNC(=O)c1cnc(N)c(OCc2c(Cl)cccc2Cl)c1` [Example L-191] it is 38%; for `N#CC1(c2ccccc2)CCN(C(=O)c2cnc(N)c(OCc3c(Cl)cccc3Cl)c2)CC1` [Example L-193] it is 37%.
Same read-out and setting: the value for `Nc1ncc(C(=O)N2CCC(O)CC2)cc1OCc1c(Cl)cccc1Cl` [Example L-194] was 35%.
Same read-out and setting: the figure for `Nc1ncc(C(=O)NCc2ccc(O)cc2)cc1OCc1c(Cl)cccc1Cl` [Example L-195] is 37%; for `Nc1ncc(C(=O)N2CCN(c3ccccn3)CC2)cc1OCc1c(Cl)cccc1Cl` [Example L-196] it is 34%.
As for `Nc1ncc(C(=O)NCc2ccccc2Br)cc1OCc1c(Cl)cccc1Cl` [Example L-197], the inhibition at 1 pM came out at 36%.
Same read-out and setting: the value for `COc1ccc(CNC(=O)c2cnc(N)c(OCc3c(Cl)cccc3Cl)c2)c(OC)c1` [Example L-198] was 59%; that for `Nc1ncc(C(=O)NCCc2ccccc2F)cc1OCc1c(Cl)cccc1Cl` [Example L-199] was 33%; that for `Nc1ncc(C(=O)NCc2ccccc2OC(F)(F)F)cc1OCc1c(Cl)cccc1Cl` [Example L-200] was 31%.
The same measure, in the same setting: the value for `CC(C)NC(=O)CN1CCN(C(=O)c2cnc(N)c(OCc3c(Cl)cccc3Cl)c2)CC1` [Example L-201] was 30%; that for `Nc1ncc(C(=O)N2CCN(CCOCCO)CC2)cc1OCc1c(Cl)cccc1Cl` [Example L-202] was 33%.
The same measure, in the same setting: the value for `CCN(CC)C(=O)C1CCCN(C(=O)c2cnc(N)c(OCc3c(Cl)cccc3Cl)c2)C1` [Example L-203] was 33%.
As for `Nc1ncc(C(=O)N2CCN(CCO)CC2)cc1OCc1c(Cl)cccc1Cl` [Example L-204], the inhibition at 1 pM came out at 51%.
The same measure, in the same setting: the figure for `CN1CCN(C(=O)c2cnc(N)c(OCc3c(Cl)cccc3Cl)c2)CC1` [Example L-205] is 32%.
On the same count and under the same terms, the value for `Nc1ncc(C(=O)N2CCN(CC(=O)N3CCCC3)CC2)cc1OCc1c(Cl)cccc1Cl` [Example L-206] was 32%.
Same read-out and setting: the value for `Nc1ncc(C(=O)N2CCCCC2CCO)cc1OCc1c(Cl)cccc1Cl` [Example L-207] was 33%.
For the molecule `COc1ccc(C(NC(=O)c2cnc(N)c(OCc3c(Cl)cccc3Cl)c2)C2CC2)cc1` [Example L-208], the inhibition at 1 pM was found to be 27%.
On the same count and under the same terms, the figure for `Nc1ncc(C(=O)N2CCN(CCCO)CC2)cc1OCc1c(Cl)cccc1Cl` [Example L-209] is 31%.
Still for that read-out and setting: the value for `CC(C)(CO)CNC(=O)c1cnc(N)c(OCc2c(Cl)cccc2Cl)c1` [Example L-210] was 39%; that for `Nc1ncc(C(=O)N2CCN(CC(=O)N3CCOCC3)CC2)cc1OCc1c(Cl)cccc1Cl` [Example L-211] was 31%; that for `Nc1ncc(C(=O)NCCc2c[nH]c3ccc(Cl)cc23)cc1OCc1c(Cl)cccc1Cl` [Example L-212] was 36%.
Same read-out and setting: the value for `CC(=O)N(C)C1CCN(C(=O)c2cnc(N)c(OCc3c(Cl)cccc3Cl)c2)C1` [Example L-213] was 31%; that for `CC(O)CNC(=O)c1cnc(N)c(OCc2c(Cl)cccc2Cl)c1` [Example L-214] was 49%.
`Cc1cnc(CNC(=O)c2cnc(N)c(OCc3c(Cl)cccc3Cl)c2)cn1` [Example L-215]: the inhibition at 1 pM worked out at 33%.
The same measure, in the same setting: the figure for `NC(=O)N1CCN(C(=O)c2cnc(N)c(OCc3c(Cl)cccc3Cl)c2)CC1` [Example L-216] is 29%.
On the same count and under the same terms, the value for `Nc1ncc(C(=O)NCCCN2CCCC2=O)cc1OCc1c(Cl)cccc1Cl` [Example L-217] was 34%; that for `CC(CCCC(C)(C)O)NC(=O)c1cnc(N)c(OCc2c(Cl)cccc2Cl)c1` [Example L-218] was 35%; that for `Nc1ncc(C(=O)NCCc2ccc(O)cc2)cc1OCc1c(Cl)cccc1Cl` [Example L-219] was 34%.
Same read-out and setting: the value for `Nc1ncc(C(=O)NCc2ccc(F)cc2)cc1OCc1c(Cl)cccc1Cl` [Example L-220] was 32%.
As for `CN(C)CCNC(=O)c1cnc(N)c(OCc2c(Cl)cccc2Cl)c1` [Example L-221], the inhibition at 1 pM is 29%.
As for `CC(C)CCNC(=O)c1cnc(N)c(OCc2c(Cl)cccc2Cl)c1` [Example L-222], the inhibition at 1 pM worked out at 26%.
Same read-out and setting: the value for `Nc1ncc(C(=O)NCCc2c[nH]c3ccc(O)cc23)cc1OCc1c(Cl)cccc1Cl` [Example L-223] was 29%.
The same measure, in the same setting: the figure for `Nc1ncc(C(=O)NCC(F)(F)F)cc1OCc1c(Cl)cccc1Cl` [Example L-224] is 30%.
The same measure, in the same setting: the value for `CN1CCC(N(C)C(=O)c2cnc(N)c(OCc3c(Cl)cccc3Cl)c2)C1` [Example L-225] was 33%; that for `Nc1ncc(C(=O)NCc2ccc(OC(F)(F)F)cc2)cc1OCc1c(Cl)cccc1Cl` [Example L-226] was 24%.
`Nc1ncc(C(=O)N2CCC(O)C2)cc1OCc1c(Cl)cccc1Cl` [Example L-227]: the inhibition at 1 pM came out at 83%.
As to `Nc1ncc(C(=O)NC[C@H]2CCCC[C@H]2O)cc1OCc1c(Cl)cccc1Cl` [Example L-228], the inhibition at 1 pM came to 24%.
Turning to `Nc1ncc(C(=O)N[C@@H]2CCCC[C@H]2CO)cc1OCc1c(Cl)cccc1Cl` [Example L-229], the inhibition at 1 pM amounted to 24%.
As for `Nc1ncc(C(=O)N[C@@H]2c3ccccc3C[C@@H]2O)cc1OCc1c(Cl)cccc1Cl` [Example L-230], the inhibition at 1 pM came out at 23%.
Same read-out and setting: the value for `Nc1ncc(C(=O)N2CCC(O)(Cc3ccccc3)CC2)cc1OCc1c(Cl)cccc1Cl` [Example L-231] was 62%; that for `COc1cc(CCNC(=O)c2cnc(N)c(OCc3c(Cl)cccc3Cl)c2)ccc1O` [Example L-233] was 32%.
In the case of `Nc1ncc(C(=O)NCC2COc3ccccc3O2)cc1OCc1c(Cl)cccc1Cl` [Example L-234], the inhibition at 1 pM amounted to 34%.
In the case of `CC(NC(=O)c1cnc(N)c(OCc2c(Cl)cccc2Cl)c1)c1ccc(O)cc1` [Example L-235], the inhibition at 1 pM is 36%.

The same assay, now with this note: read-out: % Inhibition (percent c-MET inhibition).
Turning to `CCC(=O)C(c1ccccc1)C1CCN(C(=O)c2cnc(N)c(OCc3c(Cl)cccc3Cl)c2)CC1` [Example L-192], the inhibition at 1 pM was 44%.
Still for that read-out and setting: the value for `Nc1ncc(C(=O)N2CCC(=O)CC2)cc1OCc1c(Cl)cccc1Cl` [Example L-232] was 44%.
